The record followed here is patent publication US20070043104A1, “UII-modulating compounds and their use” (priority 2005, published 2007).

This assay addresses T1, human urotensin II receptor (Homo sapiens, UniProt Q9UKP6).
T1 construct: expressed in transfected cells; host or cells: NIH3T3 cells
T1 sequence (Q9UKP6 1-389): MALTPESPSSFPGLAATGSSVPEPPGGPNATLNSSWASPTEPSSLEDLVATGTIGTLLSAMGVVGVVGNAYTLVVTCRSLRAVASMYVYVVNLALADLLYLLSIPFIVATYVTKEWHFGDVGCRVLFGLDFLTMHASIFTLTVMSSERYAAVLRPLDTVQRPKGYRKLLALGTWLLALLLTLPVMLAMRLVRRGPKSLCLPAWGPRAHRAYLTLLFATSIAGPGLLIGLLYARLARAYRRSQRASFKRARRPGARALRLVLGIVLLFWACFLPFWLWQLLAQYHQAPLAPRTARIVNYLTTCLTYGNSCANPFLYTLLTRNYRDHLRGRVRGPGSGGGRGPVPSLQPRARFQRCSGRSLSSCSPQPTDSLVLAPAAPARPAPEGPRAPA
The assay is described as follows: Receptor Selection and Amplification (R-SAT) functional assay, NIH3T3 cells transfected with human urotensin II receptor and β-galactosidase marker. The format is cell-based. To be noted: for Emax: NIH3T3, Table 4, % efficacy normalized to UII at 100%; for EC50 / pEC50: eight doses in triplicate. The essentials: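 NIH3T3 cells transiently co-transfected with human urotensin II receptor and β-galactosidase were grown five days with compounds (eight doses, triplicate). Marker activity was read as ONPG absorbance at 420 nm. pEC50 was derived, with percent activation normalized to a reference ligand set at 100%.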

The mark [1] stands for this setting: Table 4, negative of the log EC50 in molarity, average ± standard deviation of 2-5 determinations.
Setting [2] is: Table 3, negative of the log EC50 in molarity, average ± standard deviation (or range) of determinations.
Setting [3] is: Table 3, percent activation normalized to the reference ligand assigned 100%.

Counter-ions that a name gives are not always drawn.

A word on the Emax: it is the greatest response seen or fitted, relative to the assay's reference. As a reminder, the EC50 is the concentration that produces a half-maximal response. The low end stands for higher potency in that assay, the high end for lower potency in that assay. As for `Cc1ccc(C(CCN(C)C)NC(=O)CCc2ccc(C(F)(F)F)cc2)cc1` (stereo not shown) [B5, N-[3-Dimethylamino-1-(4-methylphenyl)propyl]-3-(4-trifluoromethylphenyl) propionamide HCl], the Emax stood at 60 ± 6%. For the same molecule, a half-maximal effect under setting [1] (EC50) was put at 2.29 µM.

`COc1ccc(CCC(=O)NC(CCN(C)C)c2ccc(C)cc2)cc1` (stereo not shown) [B6, N-[3-Dimethylamino-1-(4-methylphenyl)propyl]-3-(4-methoxyphenyl)propionamide HCl] had an Emax of 67 ± 14%. The EC50 under setting [1] is 5.37 µM.

As to `Cc1ccc(C(CCN(C)C)NC(=O)C=Cc2ccccc2)cc1` (stereo not shown) [B7, N-[3-Dimethylamino-1-(4-methylphenyl)propyl]cinnamic amide], the Emax is 97 ± 6%. The molecule further had an EC50 under setting [1] of 1.55 µM.

With `Cc1ccc(C(CCN(C)C)NC(=O)C=Cc2ccc(C(F)(F)F)cc2)cc1` (stereo not shown) [B8, N-[3-Dimethylamino-1-(4-methylphenyl)propyl]-4-trifluoromethyl-cinnamic amide HCl], the Emax turned out to be 96 ± 1%. The molecule also gave an EC50 under setting [1] of 0.437 µM.

For the molecule `COc1ccc(C=CC(=O)NC(CCN(C)C)c2ccc(C)cc2)cc1` (stereo not shown) [B9, N-[3-Dimethylamino-1-(4-methylphenyl)propyl]-4-methoxy-cinnamic amide HCl], the maximal effect (Emax) was 79 ± 14%. Under setting [1], this molecule showed an EC50 of 2 µM.

On to `Cc1ccc(C(CCN(C)C)NC(=O)C#Cc2ccccc2)cc1` (stereo not shown) [B10, N-[3-Dimethylamino-1-(4-methylphenyl)propyl]-3-phenylpropiolic amide], for which the Emax came to 131%. This molecule also showed a 50% effective concentration (EC50) under setting [1] of 3.09 µM.

For `CN(C)CCC(NC(=O)Cc1ccccc1)c1ccc2ccccc2c1` (stereo not shown) [C1, N-[3-Dimethylamino-1-(2-naphthyl)propyl]-2-phenylacetamide HCl], the maximal response (Emax) was found to be 121 ± 31%. For the same molecule, under setting [1], a half-maximal response (EC50) required 1.74 µM.

Take `CN(C)CCC(NC(=O)Cc1ccc(C(F)(F)F)cc1)c1ccc2ccccc2c1` (stereo not shown) [C2, N-[3-Dimethylamino-1-(2-naphthyl)propyl]-2-(4-trifluoromethylphenyl)acetamide HCl]: the Emax amounted to 40 ± 3%. Under setting [1], the EC50 was 0.575 µM.

The molecule `CN(C)CCC(NC(=O)CCc1ccccc1)c1ccc2ccccc2c1` (stereo not shown) [C4, N-[3-Dimethylamino-1-(2-naphthyl)propyl]-3-phenyl-propionamide HCl] registered an Emax of 107 ± 22%. The molecule further had an EC50 under setting [1] of 0.603 µM.

As for `CC(C(=O)NC(CCN(C)C)c1ccc2ccccc2c1)c1ccc(C(F)(F)F)cc1` (stereo not shown) [C5, N-[3-Dimethylamino-1-(2-naphthyl)propyl]-2-(4-trifluoromethylphenyl)propionamide HCl], the maximal response (Emax) came out at 75 ± 1%. The molecule further showed an EC50 under setting [1] of 0.372 µM.

As usually defined, the pEC50 is the negative decadic logarithm of the EC50, by convention in mol/L. Low values mean a high EC50, high ones a low EC50. The molecule `COc1ccc(CCC(=O)NC(CCN(C)C)c2ccc3ccccc3c2)cc1.Cl` (stereo not shown) [C6] came in with an Efficacy (Table 4, % efficacy normalized to UII at 100%) of 113 ± 9%. This molecule yielded a pEC50 under setting [1] of 5.85 ± 0.11.

In turn, `CN(C)CCC(NC(=O)/C=C/c1ccccc1)c1ccc2ccccc2c1` (stereo not shown) [C7, N-[3-Dimethylamino-1-(2-naphthyl)propyl]-3-cinnamic amide HCl] came in with a maximal effect (Emax) of 116 ± 3%. This molecule also had an EC50 under setting [1] of 0.589 µM.

As to `CN(C)CCC(NC(=O)C=Cc1ccc(C(F)(F)F)cc1)c1ccc2ccccc2c1` (stereo not shown) [C8, N-[3-Dimethylamino-1-(2-naphthyl)propyl]-4-trifluoromethyl-cinnamic amide HCl], the Emax stood at 117 ± 1%. Besides, under setting [1], a half-maximal effect (EC50) was put at 0.135 µM.

`COc1ccc(C=CC(=O)NC(CCN(C)C)c2ccc3ccccc3c2)cc1` (stereo not shown) [C9, N-[3-Dimethylamino-1-(2-naphthyl)propyl]-4-methoxy-cinnamic amide HCl] returned an Emax of 106 ± 16%. The same molecule showed an EC50 under setting [1] of 0.38 µM.

For `CN(C)CCC(NC(=O)C#Cc1ccccc1)c1ccc2ccccc2c1` (stereo not shown) [C10, N-[3-Dimethylamino-1-(2-naphthyl)propyl]-3-phenylpropiolic amide HCl], the Emax stood at 115 ± 14%. The same molecule gave an EC50 under setting [1] of 0.457 µM.

Take “(+)-N-[1-Chlorophenyl)-3-dimethylaminopropyl]-(R)-2-methoxy-2-phenyl-acetamide oxalate [(+) 5s]”: the negative logarithm of the EC50 (pEC50) under setting [2] is recorded as 5.30 ± 0.07. Also, the Efficacy under setting [3] amounted to 112 ± 22%.

Turning to “N-[1-(4-Chlorophenyl)-3-dimethylaminopropyloxycarbonyl]-4-phenyl-amine [7f]”, under setting [2], the pEC50 is listed as 6.44-6.67. In addition, under setting [3], the Efficacy was 43-75%.
